Tests used:
[1] = target: Src (Homo sapiens, UniProt P12931); assay: Kinase panel profiling; assay type: biochemical
[2] = target: T1, AXL (Homo sapiens, UniProt P30530); assay: Kinase panel profiling; assay type: biochemical
T1 sequence (P30530 26-894): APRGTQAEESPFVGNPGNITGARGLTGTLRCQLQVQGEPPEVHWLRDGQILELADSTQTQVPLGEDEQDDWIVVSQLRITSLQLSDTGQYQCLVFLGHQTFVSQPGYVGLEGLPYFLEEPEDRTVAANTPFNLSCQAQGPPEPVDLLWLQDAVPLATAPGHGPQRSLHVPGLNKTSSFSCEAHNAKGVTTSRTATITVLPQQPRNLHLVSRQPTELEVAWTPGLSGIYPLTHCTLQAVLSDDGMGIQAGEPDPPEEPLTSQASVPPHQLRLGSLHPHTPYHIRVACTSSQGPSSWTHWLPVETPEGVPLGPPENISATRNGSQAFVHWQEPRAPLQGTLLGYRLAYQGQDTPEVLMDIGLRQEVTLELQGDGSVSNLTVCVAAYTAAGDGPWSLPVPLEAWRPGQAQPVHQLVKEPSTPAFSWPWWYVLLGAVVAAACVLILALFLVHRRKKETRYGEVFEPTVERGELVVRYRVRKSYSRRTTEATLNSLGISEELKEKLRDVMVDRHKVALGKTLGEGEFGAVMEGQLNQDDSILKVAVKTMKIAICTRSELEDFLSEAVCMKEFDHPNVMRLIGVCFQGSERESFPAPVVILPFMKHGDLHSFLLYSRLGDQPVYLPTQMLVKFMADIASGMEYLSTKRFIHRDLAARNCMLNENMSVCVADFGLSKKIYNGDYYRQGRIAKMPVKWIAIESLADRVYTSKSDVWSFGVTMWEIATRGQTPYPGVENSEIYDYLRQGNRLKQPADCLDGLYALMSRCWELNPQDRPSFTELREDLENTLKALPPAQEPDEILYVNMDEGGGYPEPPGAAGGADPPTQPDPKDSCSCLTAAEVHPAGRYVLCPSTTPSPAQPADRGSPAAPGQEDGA

[3] = target: ErbB2 (Homo sapiens, UniProt P04626); assay: Kinase panel profiling; assay type: biochemical
Sequence of ErbB2 (P04626 23-1255, species assumed): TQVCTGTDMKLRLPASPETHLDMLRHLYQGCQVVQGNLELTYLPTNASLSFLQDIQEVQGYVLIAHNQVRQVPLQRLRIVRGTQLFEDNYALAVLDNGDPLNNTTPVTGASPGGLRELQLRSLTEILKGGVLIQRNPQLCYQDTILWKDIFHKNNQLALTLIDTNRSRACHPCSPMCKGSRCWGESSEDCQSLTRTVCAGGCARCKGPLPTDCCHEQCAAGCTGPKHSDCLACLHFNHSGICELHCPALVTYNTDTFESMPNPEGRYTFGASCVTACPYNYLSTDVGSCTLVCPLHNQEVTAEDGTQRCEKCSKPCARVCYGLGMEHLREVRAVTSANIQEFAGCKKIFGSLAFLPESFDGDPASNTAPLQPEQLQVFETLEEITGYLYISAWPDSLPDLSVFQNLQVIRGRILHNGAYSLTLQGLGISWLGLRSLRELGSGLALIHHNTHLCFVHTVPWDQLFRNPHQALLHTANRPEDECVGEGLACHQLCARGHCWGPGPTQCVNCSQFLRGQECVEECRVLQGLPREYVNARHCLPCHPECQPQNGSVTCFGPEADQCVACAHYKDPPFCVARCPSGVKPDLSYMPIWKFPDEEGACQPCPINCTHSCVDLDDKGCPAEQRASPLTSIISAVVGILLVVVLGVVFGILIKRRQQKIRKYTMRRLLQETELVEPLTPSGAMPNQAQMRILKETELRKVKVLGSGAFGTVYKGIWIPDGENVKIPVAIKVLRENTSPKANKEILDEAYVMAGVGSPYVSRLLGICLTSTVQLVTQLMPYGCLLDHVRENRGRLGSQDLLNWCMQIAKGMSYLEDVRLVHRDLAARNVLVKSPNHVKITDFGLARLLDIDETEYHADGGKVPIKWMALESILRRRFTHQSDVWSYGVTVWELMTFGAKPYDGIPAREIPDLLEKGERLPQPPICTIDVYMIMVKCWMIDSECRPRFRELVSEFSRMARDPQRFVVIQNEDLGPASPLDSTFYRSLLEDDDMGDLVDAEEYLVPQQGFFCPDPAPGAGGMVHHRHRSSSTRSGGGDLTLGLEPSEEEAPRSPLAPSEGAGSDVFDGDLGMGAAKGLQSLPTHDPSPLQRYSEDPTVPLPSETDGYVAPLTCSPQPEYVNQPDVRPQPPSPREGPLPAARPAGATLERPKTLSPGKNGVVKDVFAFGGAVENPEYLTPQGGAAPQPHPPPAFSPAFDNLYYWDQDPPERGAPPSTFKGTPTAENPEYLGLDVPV

[4] = target: T2, c-Met (Homo sapiens, UniProt P08581); assay: Kinase panel profiling (ELISA kinase assay); assay type: biochemical
T2 construct: purchased Millipore
T2 sequence (P08581 25-1390): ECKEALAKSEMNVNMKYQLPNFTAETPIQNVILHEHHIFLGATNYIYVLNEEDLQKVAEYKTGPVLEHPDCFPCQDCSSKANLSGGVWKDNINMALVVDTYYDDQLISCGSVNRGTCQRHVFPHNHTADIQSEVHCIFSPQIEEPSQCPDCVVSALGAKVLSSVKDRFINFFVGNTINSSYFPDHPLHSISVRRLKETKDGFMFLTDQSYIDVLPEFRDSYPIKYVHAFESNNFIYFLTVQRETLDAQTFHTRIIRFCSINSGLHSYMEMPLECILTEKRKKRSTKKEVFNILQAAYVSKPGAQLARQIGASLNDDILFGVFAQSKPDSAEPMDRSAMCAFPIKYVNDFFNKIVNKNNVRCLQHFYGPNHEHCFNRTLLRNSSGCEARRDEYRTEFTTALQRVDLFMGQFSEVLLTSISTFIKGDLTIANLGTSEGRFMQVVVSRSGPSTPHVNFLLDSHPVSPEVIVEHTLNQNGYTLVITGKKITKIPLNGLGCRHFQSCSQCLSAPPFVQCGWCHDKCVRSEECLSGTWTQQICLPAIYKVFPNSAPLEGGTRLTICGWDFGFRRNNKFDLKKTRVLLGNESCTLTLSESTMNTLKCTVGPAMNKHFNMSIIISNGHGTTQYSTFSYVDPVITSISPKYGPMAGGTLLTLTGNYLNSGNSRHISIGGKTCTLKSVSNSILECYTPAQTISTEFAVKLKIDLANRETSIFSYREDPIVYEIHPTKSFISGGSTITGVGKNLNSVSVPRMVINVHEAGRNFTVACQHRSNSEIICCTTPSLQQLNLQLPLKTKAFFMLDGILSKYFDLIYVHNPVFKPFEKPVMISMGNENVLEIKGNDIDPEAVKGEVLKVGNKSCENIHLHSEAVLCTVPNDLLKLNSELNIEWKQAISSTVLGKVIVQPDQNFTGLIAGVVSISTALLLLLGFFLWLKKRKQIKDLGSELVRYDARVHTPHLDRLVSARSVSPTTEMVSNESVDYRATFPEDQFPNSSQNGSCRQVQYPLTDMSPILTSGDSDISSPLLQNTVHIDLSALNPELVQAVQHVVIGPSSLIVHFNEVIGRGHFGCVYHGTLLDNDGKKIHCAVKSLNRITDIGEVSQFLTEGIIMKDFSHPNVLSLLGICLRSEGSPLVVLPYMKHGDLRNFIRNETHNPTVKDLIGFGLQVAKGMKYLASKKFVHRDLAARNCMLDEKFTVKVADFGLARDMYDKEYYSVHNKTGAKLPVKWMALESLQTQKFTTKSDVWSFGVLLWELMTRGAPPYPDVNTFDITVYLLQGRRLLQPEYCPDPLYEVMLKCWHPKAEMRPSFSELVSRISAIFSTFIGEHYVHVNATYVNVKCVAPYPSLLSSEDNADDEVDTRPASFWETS
Description: The effects of compounds on the activities of indicated (FGFR1 and c-Met) kinases were determined using enzyme-linked immunosorbent assays (ELISAs) with purified recombinant proteins. Briefly, 20 μg/mL poly (Glu, Tyr)4:1 (Sigma, St. Louis, MO, USA) was precoated in 96-well plates as a substrate. A 50-μL aliquot of 10 μmol/L ATP solution diluted in kinase reaction buffer (50 mmol/L HEPES (pH 7.4), 50 mmol/L MgCl2, 0.5 mmol/L MnCl2, 0.2 mmol/L Na3VO4, and 1 mmol/L DTT) was added to each well; 1 μL of various concentrations of compounds diluted in 1% DMSO (v/v) (Sigma) were then added to each reaction well. DMSO (1%, v/v) was used as the negative control. The kinase reaction was initiated by the addition of purified tyrosine kinase proteins FGFR1 (Millipore, Darmstadt, Germany) or c-Met (Millipore) diluted in 49 μL of kinase reaction buffer. After incubation for 60 min at 37 °C, the plate was washed three times with phosphate-buffered saline (PBS) containing 0.1% Tween 20 (T-PBS). Anti-phosphotyrosine (PY99) antibody (Sanra Cruz, Dallas, TX, USA) (100 μL; 1:500, diluted in 5 mg/mL bovine serum albumin (BSA) T-PBS) was then added. After a 30-min incubation at 37 °C, the plate was washed three times, and 100 μL of horseradish peroxidase-conjugated goat anti-mouse IgG (Calbiochem, Shanghai, China) (1:2000, diluted in 5 mg/mL BSA T-PBS) was added. The plate was then incubated at 37 °C for 30 min, and washed three times. A 100-μL aliquot of a solution containing 0.03% H2O2 and 2 mg/mL o-phenylenediamine in 0.1 mol/L citrate buffer (pH 5.5) was added. The reaction was terminated by the addition of 50 μL of 2 mol/L H2SO4 as the color changed, and the plate was analyzed using a multi-well spectrophotometer (SpectraMAX 190, Molecular Devices, Palo Alto, CA, USA) at 490 nm. The inhibition rate (%) was calculated using the following equation:IR = [1 − (A490/A490control)] × 100%.(1) where IR, A490, and A490control are the inhibition rate, the absorbance value of the tested compound at 490 nm, and the absorbance value of the negative control compound at 490 nm, respectively. The IC50 values were calculated from the inhibition curves in two separate experiments.

[5] = test system: KG1 leukemia cell line harboring FGFR1OP-FGFR1 fusion; assay: Cell proliferation assay in KG1 cells (SRB or MTT, 72 h); assay type: cell-based; conditions: Homo sapiens, KG-1, mean ± SD from two separate experiments, read-out: KG1 IC50 (antiproliferation activity)
Description: Cell proliferation was examined in a FGFR1-translocated KG1 leukemia cell line harboring FGFR1OP-FGFR1 fusion. The original KG1 cell line was purchased from ATCC (CRL-8031), and cultured according the ATCC standard protocol. Cells were seeded in 96-well tissue culture plates. On the next day, the cells were exposed to various concentrations of compounds and further cultured for 72 h. Cell proliferation was then determined using sulforhodamine B (SRB, from Sigma-Aldrich, St Louis, MO, USA) or the thiazolyl blue tetrazolium bromide (MTT, from Sigma-Aldrich, St Louis, MO, USA) assay. The IC50 values were calculated by concentration- response curve fitting using the four-parameter method.

[6] = target: VEGFR-1 (Homo sapiens, UniProt P17948); assay: Kinase panel profiling; assay type: biochemical
Sequence of VEGFR-1 (P17948 27-1338, species assumed): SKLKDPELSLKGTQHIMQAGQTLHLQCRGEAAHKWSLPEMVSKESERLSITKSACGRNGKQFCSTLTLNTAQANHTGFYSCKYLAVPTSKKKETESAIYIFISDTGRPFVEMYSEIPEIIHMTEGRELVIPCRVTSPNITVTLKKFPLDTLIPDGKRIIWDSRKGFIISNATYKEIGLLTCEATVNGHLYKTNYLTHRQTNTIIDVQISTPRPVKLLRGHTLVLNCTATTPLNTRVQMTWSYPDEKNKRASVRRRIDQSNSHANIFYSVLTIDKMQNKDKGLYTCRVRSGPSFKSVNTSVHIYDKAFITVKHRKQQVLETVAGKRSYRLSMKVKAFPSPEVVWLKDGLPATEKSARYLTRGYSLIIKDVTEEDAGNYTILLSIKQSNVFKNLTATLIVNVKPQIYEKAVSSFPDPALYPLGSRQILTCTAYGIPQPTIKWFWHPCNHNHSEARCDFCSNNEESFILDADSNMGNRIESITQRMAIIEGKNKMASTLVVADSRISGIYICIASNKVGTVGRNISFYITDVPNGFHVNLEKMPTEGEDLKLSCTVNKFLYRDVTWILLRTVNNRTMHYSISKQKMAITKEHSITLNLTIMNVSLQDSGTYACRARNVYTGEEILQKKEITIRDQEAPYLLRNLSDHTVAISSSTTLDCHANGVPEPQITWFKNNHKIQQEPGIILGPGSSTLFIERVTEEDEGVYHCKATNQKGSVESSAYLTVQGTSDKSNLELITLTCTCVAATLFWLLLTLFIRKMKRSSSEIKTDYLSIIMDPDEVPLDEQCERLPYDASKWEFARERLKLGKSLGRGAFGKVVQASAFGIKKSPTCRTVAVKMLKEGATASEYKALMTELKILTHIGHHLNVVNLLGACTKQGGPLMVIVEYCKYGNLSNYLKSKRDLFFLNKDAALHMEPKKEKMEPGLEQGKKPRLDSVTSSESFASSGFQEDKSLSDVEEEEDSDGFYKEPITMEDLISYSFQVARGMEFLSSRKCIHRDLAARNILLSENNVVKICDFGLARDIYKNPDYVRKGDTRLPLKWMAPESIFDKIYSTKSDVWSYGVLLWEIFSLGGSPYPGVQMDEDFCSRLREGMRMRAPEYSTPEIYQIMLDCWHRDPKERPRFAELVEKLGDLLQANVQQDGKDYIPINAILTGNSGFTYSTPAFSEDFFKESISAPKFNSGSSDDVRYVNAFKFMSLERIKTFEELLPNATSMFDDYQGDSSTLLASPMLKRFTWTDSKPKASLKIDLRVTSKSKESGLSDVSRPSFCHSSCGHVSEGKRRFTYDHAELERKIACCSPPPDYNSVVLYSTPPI

[7] = target: FGFR2 (Homo sapiens, UniProt P21802); assay: Kinase panel profiling; assay type: biochemical

Sequence of Src (P12931 whole entry, species assumed): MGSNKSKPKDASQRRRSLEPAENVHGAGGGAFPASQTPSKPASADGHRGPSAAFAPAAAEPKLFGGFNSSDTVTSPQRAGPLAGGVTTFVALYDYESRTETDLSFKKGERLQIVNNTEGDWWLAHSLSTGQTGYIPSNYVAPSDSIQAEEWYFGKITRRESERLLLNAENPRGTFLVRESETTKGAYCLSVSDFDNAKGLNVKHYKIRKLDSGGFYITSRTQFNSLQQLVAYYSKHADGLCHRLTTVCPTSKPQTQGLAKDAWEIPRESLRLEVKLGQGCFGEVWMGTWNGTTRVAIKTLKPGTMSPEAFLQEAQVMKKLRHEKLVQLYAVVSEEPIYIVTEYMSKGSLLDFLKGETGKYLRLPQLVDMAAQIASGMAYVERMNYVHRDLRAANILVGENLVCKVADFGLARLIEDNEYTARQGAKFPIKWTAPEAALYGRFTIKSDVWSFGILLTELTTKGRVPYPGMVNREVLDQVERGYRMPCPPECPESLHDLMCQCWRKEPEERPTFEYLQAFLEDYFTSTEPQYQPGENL

O=S(=O)(c1cn(CCF)cn1)n1ccc2ncc(-c3cn[nH]c3)nc21 [Compound 13, 5-((1-(2-fluoroethyl)-1H-imidazol-4-yl)sulfonyl)-3-(1H-pyrazol-4-yl)-5H-pyrrolo[2,3-b]pyrazine]
inhibition at 0.01 µM ([1]; 10 nM): 0% | inhibition at 0.1 µM ([1]; 100 nM): 0% | inhibition at 1 µM ([1]; 1000 nM): 0% | inhibition at 0.01 µM ([2]; 10 nM): 1.1% | inhibition at 0.1 µM ([2]; 100 nM): 2.9% | inhibition at 1 µM ([2]; 1000 nM): -5.5% | inhibition at 0.01 µM ([3]; 10 nM): 0% | inhibition at 0.1 µM ([3]; 100 nM): 0% | inhibition at 1 µM ([3]; 1000 nM): 0% | inhibition at 0.01 µM ([4]; 10 nM): 3.9% | inhibition at 0.1 µM ([4]; 100 nM): 3.9% | Kinase Inhibition (%) c-Met ([4]; 1000 nM (1 μM)): nearly no inhibition | inhibition at 1 µM ([4]; 1000 nM (1 μM)): 4.6% | IC50 [5]: 0.0291 ± 0.0055 µM | inhibition at 0.01 µM ([6]; 10 nM): 0% | inhibition at 0.1 µM ([6]; 100 nM): 4.9% | inhibition at 1 µM ([6]; 1000 nM): 0% | inhibition at 0.01 µM ([7]; 10 nM): 60.9% | inhibition at 0.1 µM ([7]; 100 nM): 92% | inhibition at 1 µM ([7]; 1000 nM): 97.2%

Reference: paper PMC6017193, “Structure-Based Discovery of a Series of 5H-Pyrrolo[2,3-b]pyrazine FGFR Kinase Inhibitors” (Molecules : A Journal of Synthetic Chemistry and Natural …, 2018)
